Patent publication US20240067632A1, “WEE1 Degrading Compounds and Uses Thereof” (Bristol-Myers Squibb Company, priority 2022, published 2024)
pEC50: −log10 of the molar value. Read-outs that look alike come from different tables or passages of the source.

Experiments:
MKN45 cells = assay: MKN45 cell proliferation assay (Cell-Titer-Glo, 120 h); format: cell-based; conditions: for pEC50: Homo sapiens, MKN-45, 120 h, Cell-Titer-Glo, read-out: MKN45 Cell Prolif. 120 hr (EC50); for MKN45 Cell Prolif. 120 hr (Ymin-Obs): minimal percent of DMSO control observed in the concentrations tested
In short: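 Growth inhibition was read as blank-corrected Cell-Titer-Glo luminescence expressed as percent DMSO control after 120 h at 37 C, 400 cells/well. Compounds tested in triplicate as 10-point half-log series from 1 or 10 uM, 0.1% DMSO; four-parameter fit gave EC50, and lowest observed percent control was reported as Ymin-obs.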

WEE1 = target: T1, WEE1 (Homo sapiens, UniProt P30291+Q96SW2); assay: WEE1-ePL degradation assay (LentiX-WEE1-ePL-GSPT1-ND cells, InCELL Hunter luminescence, 4 h); format: cell-based; conditions: 293T-LentiX WEE1-ePL cells; for DC50: read-out: 293T-LentiX WEE1-ePL Degradation 4 hr (EC50)
T1 construct: C-terminal ePL-tagged (DiscoverX, Fremont, CA) full-length WEE1 expression construct; expressed in transfected cells; host or cells: LentiX-HEK293T (Invitrogen), lentiviral transduction; co-expressing GSPT1-GN (G576N, lacking the first 158 amino acids)
In short: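 First, compounds were pre-plated as 10-point, 3-fold dilutions (top 1 uM or 10 uM) with DMSO control; next, WEE1-ePL-expressing HEK293T cells were added and held 4 h at 37 °C; finally, InCELL Hunter reagent was applied for 30 min before luminescence reading. A 4PL fit gave EC50 and Ymin.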

[1] = lower limit of the fit (Ymin=0 luciferase inhibitor, Ymax DMSO control)
[2] = lower limit of the fit (0 = luciferase inhibitor, Ymax = DMSO control)

Row | Structure (SMILES) | pEC50 (MKN45 cells) | 293T-LentiX WEE1-ePL Degradation 4 hr (Ymin) (WEE1; [1]) | DC50 (WEE1) [nM] | pEC50 (MKN45 cells; growth inhibition) | 293T-LentiX WEE1-ePL Degradation 4 hr (Ymin) (WEE1; [2]) | MKN45 Cell Prolif. 120 hr (Ymin-Obs) (MKN45 cells)
1 | O=C1CCC(N2Cc3cc(O[C@H]4CCN(Cc5ccc6nc(N7C[C@@H]8C9CCC(O9)[C@@H]8C7)ncc6c5)C4)ccc3C2=O)C(=O)N1 (stereo partly drawn) |  |  | 9.25 | 7.98 | 35 | 12.82
2 | Cc1cc(CN2CC[C@H](Oc3ccc4c(c3)CN(C3CCC(=O)NC3=O)C4=O)C2)ccn1 (stereo partly drawn) [3-(5-{[(3S)-1-[(2-methylpyridin-4-yl)methyl]pyrrolidin-3-yl]oxy}-1-oxo-2,3-dihydro-1H-isoindol-2-yl)piperidine-2,6-dione] |  |  | 39.5 | 6.18 | 39.18 | 37.845
3 | O=C1CCC(N2Cc3cc(O[C@H]4CCN(Cc5nccc6c5CCCO6)C4)ccc3C2=O)C(=O)N1 (stereo partly drawn) [3-(1-oxo-5-{[(3S)-1-({2H,3H,4H-pyrano[3,2-c]pyridin-5-yl}methyl)pyrrolidin-3-yl]oxy}-2,3-dihydro-1H-isoindol-2-yl)piperidine-2,6-dione] |  |  | 16.1 | 6.91 | 36 | 16.99
4 | O=C1CCC(N2Cc3cc(O[C@@H]4CN(Cc5ccc6nc([C@H]7CCOC7)ccc6c5)C[C@@H]4F)ccc3C2=O)C(=O)N1 (stereo partly drawn) [3-(5-{[(3R,4S)-4-fluoro-1-({2-[(3R)-oxolan-3-yl]quinolin-6-yl}methyl)pyrrolidin-3-yl]oxy}-1-oxo-2,3-dihydro-1H-isoindol-2-yl)piperidine-2,6-dione] | 8.30 | 30.72 | 3.84 |  |  | 13.2
5 | Cc1cncc(CN2CC[C@H](Oc3ccc4c(c3)CN(C3CCC(=O)NC3=O)C4=O)C2)c1C (stereo partly drawn) [3-(5-{[(3S)-1-[(4,5-dimethylpyridin-3-yl)methyl]pyrrolidin-3-yl]oxy}-1-oxo-2,3-dihydro-1H-isoindol-2-yl)piperidine-2,6-dione] |  |  | 40.7 | 6.39 | 37.63 | 62.92
6 | O=C1CCC(N2Cc3cc(O[C@H]4CCN(Cc5ccc6nc(N7CC[C@H](O)C7)ccc6c5)C4)ccc3C2=O)C(=O)N1 (stereo partly drawn) [3-(5-{[(3S)-1-({2-[(3S)-3-hydroxypyrrolidin-1-yl]quinolin-6-yl}methyl)pyrrolidin-3-yl]oxy}-1-oxo-2,3-dihydro-1H-isoindol-2-yl)piperidine-2,6-dione] |  |  | 10.4 | 7.94 | 36.5 | 7.1

Stronger by DC50 (WEE1), values ahead:

Row | pEC50 (MKN45 cells) | 293T-LentiX WEE1-ePL Degradation 4 hr (Ymin) (WEE1; [1]) | DC50 (WEE1) [nM] | pEC50 (MKN45 cells; growth inhibition) | 293T-LentiX WEE1-ePL Degradation 4 hr (Ymin) (WEE1; [2]) | Structure (SMILES) | MKN45 Cell Prolif. 120 hr (Ymin-Obs) (MKN45 cells)
7 |  |  | 2.84 | 8.68 | 34 | CC1(C)COCCN1c1ccc2cc(CN3CC[C@H](Oc4ccc5c(c4)CN(C4CCC(=O)NC4=O)C5=O)C3)ccc2n1 (stereo partly drawn) [3-(5-{[(3S)-1-{[2-(3,3-dimethylmorpholin-4-yl)quinolin-6-yl]methyl}pyrrolidin-3-yl]oxy}-1-oxo-2,3-dihydro-1H-isoindol-2-yl)piperidine-2,6-dione] | 9.02
8 |  |  | 2.8 | 8.04 | 29 | CC(C)(C)c1ccc2cc(CN3CC[C@H](Oc4ccc5c(c4)CN(C4CCC(=O)NC4=O)C5=O)C3)ccc2n1 (stereo partly drawn) [3-(5-{[(3S)-1-[(2-tert-butylquinolin-6-yl)methyl]pyrrolidin-3-yl]oxy}-1-oxo-2,3-dihydro-1H-isoindol-2-yl)piperidine-2,6-dione] | 11.88
9 | 8.84 | 34.19 | 1.73 |  |  | O=C1CC[C@H](N2Cc3cc(O[C@H]4CCN(Cc5cc(F)c6nc([C@@H]7CCOC7)ccc6c5)C4)ccc3C2=O)C(=O)N1 [(3S)-3-(5-{[(3S)-1-({8-fluoro-2-[(3S)-oxolan-3-yl]quinolin-6-yl}methyl)pyrrolidin-3-yl]oxy}-1-oxo-2,3-dihydro-1H-isoindol-2-yl)piperidine-2,6-dione] | 9.273
